In patent publication US20240343761A1, “APELINERGIC MACROCYCLES AND USES THEREOF” (priority 2021, published 2024):
Read-outs that look alike come from different tables or passages of the source. Bridge positions count the residues as written; N and C are the ends. Square brackets hold non-standard residues; d marks the D form. Peptide text beside a SMILES is read from it. pGlu = O=C1CC[C@@H](C(=O)O)N1; Nle = CCCC[C@H](N)C(=O)O

What was measured:
[1] = molecular target: T1, human APJ (hAPJ) (Homo sapiens, UniProt P35414); assay: Competitive radioligand binding ([125I][Nle75,Tyr77][Pyr1]-Ape13) on membranes of HEK293 cells stably expressing human APJ
T1 construct: expressed in transfected cells; cell membranes
T1 sequence (P35414 1-380): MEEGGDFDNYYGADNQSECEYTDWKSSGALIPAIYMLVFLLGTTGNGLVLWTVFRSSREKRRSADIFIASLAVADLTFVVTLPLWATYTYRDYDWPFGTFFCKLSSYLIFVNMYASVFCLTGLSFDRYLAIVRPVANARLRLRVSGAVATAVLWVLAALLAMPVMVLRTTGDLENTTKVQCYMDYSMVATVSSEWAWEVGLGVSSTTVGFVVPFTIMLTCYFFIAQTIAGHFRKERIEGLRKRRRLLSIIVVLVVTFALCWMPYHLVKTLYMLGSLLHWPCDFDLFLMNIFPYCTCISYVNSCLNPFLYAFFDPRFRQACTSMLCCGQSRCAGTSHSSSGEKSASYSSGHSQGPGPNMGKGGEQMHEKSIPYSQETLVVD
Procedure: HEK293 cells stably expressing YFP-tagged human APJ were cultured in DMEM medium supplemented with 10% FBS, at 37° C. under a humid atmosphere maintaining 5% CO2. Antibiotic G418 (400 μg/mL) was added to maintain a selection pressure for APJ-expressing cells while penicillin/streptomycin (0.1%) were used to prevent bacterial contamination.
Binding experiments were performed on cell membranes of HEK293 stably expressing the YFP-tagged human APJ receptor. Cells were frozen at −80° C. for storage and quickly thawed right before the experiments (1 min at 37° C.). […] The precipitate (cell membranes) was suspended in binding buffer (50 mM Tris-HCl, 0.2% BSA, pH 7.4). Binding assays were run in 96-well plates. […] (820 Ci/mmol)^3 and test ligand with a range of concentrations from 10^−1 to 10^−11 M in a total volume of 200 μL for 1 h at room temperature.
The incubation mixtures were filtered through a glass fiber filter (Millipore, pre-absorbed of PEI 0.5% for 2 h at 4° C.) to remove unbound ligands, and the filter membranes were washed three times with 170 μL cold binding buffer (4° C.). The γ emission was measured using a 1470 Wizard γ-counter from PerkinElmer (Waltham, USA) (80% efficiency).

[2] = molecular target: T2, hAPJ receptor (Homo sapiens, UniProt P35414); assay: BRET-based Gαi1 activation assay in HEK293 cells; format: cell-based; conditions: HEK293; Table V; read-out: Gαi1 Emax
T2 construct: expressed in transfected cells; host or cells: HEK293, transient transfection with PEI
T2 sequence (P35414 1-380): T1 sequence (P35414 1-380)
Procedure: (§1) HEK293 cells were cultivated in high glucose DMEM medium having 10% FBS, 100 U/mL penicillin/streptomycin, 2 mM glutamine, and 20 mM HEPES at 37° C. in T175 flasks under humidified chamber at 5% CO2. […] Cells were then washed with phosphate-buffered saline (PBS) and 90 μL Hanks' balanced salt solution was added in each well. Then, cells were stimulated with analogs at concentrations ranging from 10^−5 M to 10^−11 M for 5 min at 37° C. (Gαi1) or for 30 min at room temperature (β-arrestin2). After stimulation, 5 μM of coelanterazine 400A was added to each well and the plate was read using the BRET^2 filter set of a GeniosPro plate reader (Tecan, Austria). The BRET ratio was determined as GFP10em/RlucIIem. Data were plotted and EC50 values were determined using GraphPad Prism 8. Each data point represents the mean±SEM of at least three different experiments each done in triplicate.

[3] = molecular target: T2, hAPJ receptor; assay: BRET-based β-arrestin2 recruitment assay in HEK293 cells; format: cell-based
Procedure: as §1

[4] = Rat plasma stability (half-life in vitro); format: in vitro ADME; conditions: male, Sprague-Dawley, rat, plasma, Table I, rat plasma, 37° C., up to 24 h; for half-life at […]: read-out: Half-life in vitro (converted)
Procedure: Plasma was obtained from male Sprague-Dawley rats by collecting blood in heparin tube and centrifugating at 13,000 rpm to remove blood cells. The isolated plasma was stored at −80° C. and thawed right before the test. In 96-well plate, 6 μL of peptide solution at 1 mM was incubated with 27 μL of plasma at 37° C. in an oven equipped with orbital shaker. Tightly fitted caps were used to seal the wells to avoid water evaporation during incubation. […] A 96-well UPLC plate was put at the bottom to collect the samples. Both plates were centrifuged at 500 g for 10 min at 4° C. to accelerate the filtration. […] The quantity of remaining peptide was plotted into an exponential one-phase decay curve using GraphPad Prism 8 which allowed to calculate peptide half-life. The results were presented as mean±SEM of at least 3 independent experiments, each done in simplicate.
The percentage of remaining analogue was calculated by doing the ratio between AU of compound and AUC of internal standard. Half-lives were extrapolated from curves.

SMILES: CCCC[C@H](NC(=O)[C@@H]1CCCN1C(=O)CNC(=O)[C@H](CCCCN)NC(=O)[C@@H]1CCCC[C@H](NC(=O)[C@H](CCCNC(=N)N)NC(=O)[C@@H]2CCC(=O)N2)C(=O)N[C@@H](CCCNC(=N)N)C(=O)N[C@@H](CC(C)C)C(=O)N[C@@H](CO)C(=O)N1)C(=O)N1CCC[C@H]1C(=O)N[C@@H](Cc1ccccc1)C(=O)O [Compound 13, Pyr-R-c*[X-R-L-S-X]c-K-G-P-Nle-P-F]
- Ki ([1]; Table I, mean ± SEM, read-out: Ki binding): 4.3 ± 0.3 nM
- Ki ([1]; Table V, read-out: Binding Ki): 4.3 ± 0.3 nM
- Emax [2]: 102%
- Emax ([3]; HEK293, Table V, read-out: ß-arr2 Emax): 75%
- EC50 ([3]; Table I, read-out: EC50 β-arr2): 199 ± 65 nM
- EC50 ([3]; Table V, read-out: ß-arr2 EC50): 199 ± 65 nM

SMILES: CCCC[C@H](NC(=O)[C@@H]1CCCN1C(=O)CNC(=O)[C@H](CCCCN)NC(=O)[C@@H]1CC(=O)NC[C@H](NC(=O)[C@H](CCCNC(=N)N)NC(=O)[C@@H]2CCC(=O)N2)C(=O)N[C@@H](CCCNC(=N)N)C(=O)N[C@@H](CC(C)C)C(=O)N[C@@H](CO)C(=O)N1)C(=O)N1CCC[C@H]1C(=O)N[C@@H](Cc1ccccc1)C(=O)O [Compound 14, Pyr-R-c[Dap-R-L-S-Asp]c-K-G-P-Nle-P-F]
- half-life at 0.182 mM [4]: 0.2 ± 0.1 h

SMILES: CCCC[C@H](NC(=O)[C@@H]1CCCN1C(=O)CNC(=O)[C@H](CCCCN)NC(=O)[C@@H]1CC(=O)NCCCC[C@H](NC(=O)[C@H](CCCNC(=N)N)NC(=O)[C@@H]2CCC(=O)N2)C(=O)N[C@@H](CCCNC(=N)N)C(=O)N[C@@H](CC(C)C)C(=O)N[C@@H](CO)C(=O)N1)C(=O)N1CCC[C@H]1C(=O)N[C@@H](Cc1ccccc1)C(=O)O [Compound 17, Pyr-R-c[Lys-R-L-S-Asp]c-K-G-P-Nle-P-F] ([pGlu]RKRLSDKGP[Nle]PF-OH; lactam 3-7)
- half-life at 0.182 mM [4]: 0.1 h

SMILES: CCCC[C@H](NC(=O)[C@@H]1CCCN1C(=O)CNC(=O)[C@H](CCCCN)NC(=O)[C@@H]1CC=CCCC(=O)N[C@@H](CCCNC(=N)N)C(=O)N[C@@H](CC(C)C)C(=O)N[C@@H](CO)C(=O)N1)C(=O)N1CCC[C@H]1C(=O)N[C@@H](Cc1ccccc1)C(=O)O [Compound 22, Ø-c[X-R-L-S-X]c-K-G-P-Nle-P-F]
- half-life at […] [4]: 2 ± 0.2 h

SMILES: CCCC[C@@H]1NC(=O)[C@@H](N)CC=CC[C@@H](C(=O)N[C@@H](CCCCN)C(=O)NCC(=O)N2CCC[C@H]2C(=O)N[C@@H](CCCC)C(=O)N2CCC[C@H]2C(=O)N[C@@H](Cc2ccccc2)C(=O)O)NC(=O)[C@H](CO)NC(=O)[C@H](CC(C)C)NC1=O [Compound 24, NH2-c[X-Nle-L-S-X]c-K-G-P-Nle-P-F]
- half-life at […] [4]: 3.8 ± 0.5 h

SMILES: CCCC[C@H](NC(=O)[C@@H]1CCCN1C(=O)CNC(=O)[C@H](CCCCN)NC(=O)[C@@H]1Cc2cncn2CC=CC[C@H](N)C(=O)N[C@@H](CCCNC(=N)N)C(=O)N[C@@H](CC(C)C)C(=O)N[C@@H](CO)C(=O)N1)C(=O)N1CCC[C@H]1C(=O)N[C@@H](Cc1ccccc1)C(=O)O [Compound 25, NH2-c[X-R-L-S-Alh]c-K-G-P-Nle-P-F]
- half-life at 0.182 mM [4]: 2 ± 0.3 h

SMILES: CC(C)C[C@@H]1NC(=O)[C@H](CCCNC(=N)N)NC(=O)[C@@H](N)CC=CC[C@@H](C(=O)N[C@@H](CCCCN)C(=O)NCC(=O)N2CCC[C@H]2C(=O)N[C@@H](Cc2cccc3ccccc23)C(=O)O)NC(=O)[C@H](CO)NC1=O [Compound 35, NH2-c[X-R-L-S-X]c-K-G-P-1Nal]
- half-life at 0.182 mM [4]: 0.3 ± 0.1 h
